Broadly, the LC50 is the concentration lethal to half of the exposed cells or organisms. Low readings indicate a more lethal substance, high ones a less lethal substance.

Here are results for 6 compounds from US10729135B2, “Methods of controlling pests using terpendoles” (priority 2017, dated 2020).

SMILES strings stand for the structures.

The subject of the series is green peach aphids (Myzus persicae). Put plainly: LC50 biological efficacy assay on green peach aphids, aerosolized dilutions on infested radish leaves. Format: in vivo. The note with it: for LC50: concentration for 50% control over 24-48 hours, infested radish leaves, 500 μl aerosolized dilution; for control of green peach aphids (in words): summary of Table 1. On the procedure: Biological efficacy assays utilizing terpendoles were conducted on green peach aphids (Myzus persicae). Specifically, terpendole A, terpendole C, terpendole J, terpendole K, terpendole N, terpendole O and terpendole P were each separately applied in serial dilutions to determine the concentration at which 50% control of green peach aphids occurred over a period of 24-48 hours (“LC50”). Radish leaves infested with green peach aphids were treated, top and bottom, with a total of 500 μl of an aerosolized terpendole dilution. Treated, aphid infested leaves were held in greenhouse conditions and evaluated for efficacy at 24 and 48 h.

As to `CC1(C)OC1[C@H]1O[C@H]2[C@H]3O[C@@]34[C@H](CC[C@@]3(C)[C@@]4(O)CC[C@H]4Cc5c([nH]c6ccccc56)[C@@]43C)O[C@@H]2C(C)(C)O1` (stereo partly drawn) [Terpendole A, terpendole A], the LC50 worked out at 7 ppm and the “control of green peach aphids (in words)” value is “effectively controlled”.

On to `CC(C)=CCOC(C)(C)[C@H]1O[C@H]2CC[C@@]3(C)[C@@](O)(CC[C@H]4Cc5c([nH]c6ccccc56)[C@@]43C)[C@]23O[C@@H]3[C@@H]1O` [Terpendole J, terpendole J], for which the 50% lethal concentration (LC50) is 5,183 ppm and the “control of green peach aphids (in words)” value is recorded as “effectively controlled”.

As to `CC(C)=C[C@H]1O[C@H]2[C@H]3O[C@@]34C(=CC[C@@]3(C)[C@@]4(O)CC[C@H]4Cc5c([nH]c6ccccc56)[C@@]43C)O[C@@H]2C(C)(C)O1` [Terpendole K, terpendole K], the LC50 is listed as 44 ppm and the “control of green peach aphids (in words)” value is on record as “effectively controlled”.

`CC(C)=C[C@@H]1O[C@H]2[C@@H](O[C@@H]3CC[C@]4(C)[C@](O)(CC[C@H](CC5(O)C(=O)Nc6cccc(CC7OC7(C)C)c65)[C@@]4(C)O)[C@@]34O[C@@H]24)C(C)(C)O1` (stereo partly drawn) [Terpendole N, terpendole N]: the 50% lethal concentration (LC50) stood at 4 ppm and the “control of green peach aphids (in words)” value was “effectively controlled”.

With `CC(C)=CCc1cccc2[nH]c3c(c12)C[C@@H]1CC[C@@]2(O)[C@@]45O[C@@H]4[C@@H]4O[C@H](C6OC6(C)C)OC(C)(C)[C@H]4O[C@H]5CC[C@]2(C)[C@@]31C` (stereo partly drawn) [Terpendole O, terpendole O], the LC50 was 105 ppm and the “control of green peach aphids (in words)” value is reported as “effectively controlled”.

As for `CC(C)=CCc1ccc2c3c([nH]c2c1)[C@@]1(C)[C@@H](CC[C@@]2(O)[C@@]45O[C@@H]4[C@@H]4O[C@H](C6OC6(C)C)OC(C)(C)[C@H]4O[C@H]5CC[C@@]21C)C3` (stereo partly drawn) [Terpendole P, terpendole P], the LC50 stood at 67 ppm and the “control of green peach aphids (in words)” value is listed as “effectively controlled”.
